How the values were obtained:
human COX-1 = target: T1, human COX-1 (Homo sapiens, UniProt P23219); assay: Inhibition of PGE2 release in COS cells stably transfected with human COX-1; format: cell-based; conditions: COS cells transfected with human COX-1, 30 μM arachidonic acid
T1 construct: expressed in transfected cells; host or cells: COS cells (stably transfected)
Description: (§1) Inhibitory activity against human COX-1 and COX-2 was assessed in COS cells which had been stably transfected with cDNA for human COX-1 and human COX-2. 24 Hours prior to experiment, COS cells were transferred from the 175 cm^2 flasks in which they were grown, onto 24-well cell culture plates using the following procedure. The incubation medium (Dulbecco's modified eagles medium (DMEM) supplemented with heat-inactivated foetal calf serum (10%v/v), penicillin (100 lU/ml), streptomycin (100 μg/ml) and geneticin (600 μg/ml)) was removed from a flask of confluent cells (1 flask at confluency contains approximately 1×10^7 cells). 10 ml of phosphate buffered saline (PBS) was added to the flask to wash the cells. Having discarded the PBS, cells were then rinsed in 10 ml trypsin for 20 seconds, after which the trypsin was removed and the flask placed in an incubator (37°) for 1-2 minutes until cells became detached from the flask. The flask was then removed from the incubator and cells resuspended in 10 ml of fresh incubation medium. The contents of the flask was transferred to a 250 ml sterile container and the volume of incubation medium subsequently made up to 100 ml. 1 ml cell suspension was pipetted into each well of 4×24-well cell culture plates. The plates were then placed in an incubator (37° C., 95% air/5% CO2) overnight. If more than 1 flask of cells were required, the cells from flasks were combined before being dispensed into the 24-well plates.
(§2) Following the overnight incubation, the incubation medium was completely removed from the 24-well cell culture plates and replaced with 250 μl fresh DMEM (37° C.). The test compounds were made up to 250× the required test concentration in DMSO and were added to the wells in a volume of 1 μl. Plates were then mixed gently by swirling and then placed in an incubator for 1 hour (37° C., 95% air/5% CO2). Following the incubation period, 10 μl of arachidonic acid (750 μM) was added to each well to give a final arachidonic acid concentration of 30 μM. Plates were then incubated for a further 15 minutes, after which the incubation medium was removed from each well of the plates and stored −20° C., prior to determination of prostaglandin E2 (PGE2) levels using enzyme immunoassay. The inhibitory potency of the test compound was expressed as an IC50 value, which is defined as the concentration of the compound required to inhibit the PGE2 release from the cells by 50%. The selectivity ratio of inhibition of COX-1 versus COX-2 was calculated by comparing respective IC50 values. The following IC50 values for inhibition of COX-2 and COX-1 were obtained for compounds of the invention: […]

human COX-2 = target: T2, human COX-2 (Homo sapiens, UniProt P35354); assay: Inhibition of PGE2 release in COS cells stably transfected with human COX-2; format: cell-based; conditions: COS cells transfected with human COX-2, 30 μM arachidonic acid
T2 construct: expressed in transfected cells; host or cells: COS cells (stably transfected)
T2 sequence (P35354 18-604): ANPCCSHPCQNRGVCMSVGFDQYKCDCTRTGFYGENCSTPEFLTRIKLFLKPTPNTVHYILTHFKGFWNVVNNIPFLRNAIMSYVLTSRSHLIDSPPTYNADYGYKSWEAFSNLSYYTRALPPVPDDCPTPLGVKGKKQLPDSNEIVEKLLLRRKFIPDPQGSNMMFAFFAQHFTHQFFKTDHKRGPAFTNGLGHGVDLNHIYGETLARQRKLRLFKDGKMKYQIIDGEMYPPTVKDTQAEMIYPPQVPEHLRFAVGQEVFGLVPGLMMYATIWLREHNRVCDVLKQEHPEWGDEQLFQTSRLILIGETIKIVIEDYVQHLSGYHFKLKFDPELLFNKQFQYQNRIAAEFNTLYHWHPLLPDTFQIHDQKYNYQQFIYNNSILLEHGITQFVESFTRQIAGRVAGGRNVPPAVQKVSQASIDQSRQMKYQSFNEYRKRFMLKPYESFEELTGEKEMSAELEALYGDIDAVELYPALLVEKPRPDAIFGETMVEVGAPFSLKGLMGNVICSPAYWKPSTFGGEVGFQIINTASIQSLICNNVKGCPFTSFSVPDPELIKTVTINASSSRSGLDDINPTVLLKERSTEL
Description: as §1, §2

T1 sequence (P23219 24-599): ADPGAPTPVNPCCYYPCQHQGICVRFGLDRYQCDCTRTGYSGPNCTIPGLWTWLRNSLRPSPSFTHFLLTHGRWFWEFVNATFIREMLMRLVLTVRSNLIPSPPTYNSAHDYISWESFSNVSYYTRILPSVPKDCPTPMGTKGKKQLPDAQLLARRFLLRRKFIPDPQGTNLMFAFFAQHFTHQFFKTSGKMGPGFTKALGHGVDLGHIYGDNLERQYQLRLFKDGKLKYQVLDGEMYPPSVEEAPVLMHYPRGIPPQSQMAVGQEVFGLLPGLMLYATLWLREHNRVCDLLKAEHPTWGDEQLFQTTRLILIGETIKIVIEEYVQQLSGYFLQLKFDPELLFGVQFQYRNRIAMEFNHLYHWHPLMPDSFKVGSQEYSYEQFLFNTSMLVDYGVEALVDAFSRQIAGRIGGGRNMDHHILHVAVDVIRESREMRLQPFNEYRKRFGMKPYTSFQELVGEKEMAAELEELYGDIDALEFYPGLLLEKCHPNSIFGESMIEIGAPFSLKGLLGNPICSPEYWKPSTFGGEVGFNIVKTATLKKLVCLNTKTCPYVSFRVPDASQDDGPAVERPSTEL

`CS(=O)(=O)c1ccc(-c2c(-c3ccccc3)nn3cc(C(F)(F)F)ccc23)cc1` [Example 7, 3-(4-Methanesulfonyl-phenyl)-2-phenyl-6-trifluoromethyl-pyrazolo[1,5-a]pyridine] was tested, and the IC50 (human COX-1) was > 100 µM and the IC50 (human COX-2) was 30 nM.
In the case of `NS(=O)(=O)c1ccc(-c2c(-c3ccc(F)cc3)nn3cc(C(F)(F)F)ccc23)cc1` [Example 4, 4-[2-(4-Fluoro-phenyl)-6-trifluoromethyl-pyrazolo[1,5-a]pyridin-3-yl]benzenesulfonamide], the IC50 (human COX-1) is reported as > 100 µM and the IC50 (human COX-2) is reported as 34 nM.
An IC50 (human COX-1) of 26.3 µM and an IC50 (human COX-2) of 31 nM were found for `NS(=O)(=O)c1ccc(-c2c(-c3ccccc3)nn3cc(C(F)(F)F)ccc23)cc1` [Example 6, 4-(2-Phenyl-6-trifluoromethyl-pyrazolo[1,5-a]pyridin-3-yl)-benzenesulfonamide] in this work.
In the case of `CS(=O)(=O)c1ccc(-c2c(-c3cccc(F)c3)nn3cc(C(F)(F)F)ccc23)cc1` [Example 2, 2-(3-Fluoro-phenyl)-3-(4-methanesulfonyl-phenyl)-6-trifluoromethyl-pyrazolo[1,5-a]pyridine], the IC50 (human COX-1) is reported as > 100 µM and the IC50 (human COX-2) is reported as 548 nM.
`CS(=O)(=O)c1ccc(-c2c(-c3ccc(F)cc3)nn3cc(C(F)(F)F)ccc23)cc1` [Example 5, 2-(4-Fluoro-phenyl)-3-(4-methanesulfonyl-phenyl)-6-trifluoromethyl-pyrazolo[1,5-a]pyridine] was tested, and the IC50 (human COX-1) was > 100 µM and the IC50 (human COX-2) was 26 nM.
`NS(=O)(=O)c1ccc(-c2c(-c3cccc(F)c3)nn3cc(C(F)(F)F)ccc23)cc1` [Example 1(vii), 4-[2-(3-Fluoro-phenyl)-6-trifluoromethyl-pyrazolo[1,5-a]pyridin-3-yl]benzenesulfonamide] was tested, and the IC50 (human COX-1) was > 100 µM and the IC50 (human COX-2) was 34 nM.
An IC50 (human COX-1) of 32.2 µM and an IC50 (human COX-2) of 34 nM were found for `CCOc1ccc(-c2nn3cc(C(F)(F)F)ccc3c2-c2ccc(S(N)(=O)=O)cc2)cc1` [Example 3, 4-[2-(4-Ethoxy-phenyl)-6-trifluoromethyl-pyrazolo[1,5-a]pyridin-3-yl]benzenesulfonamide] in this work.

Source: patent US7223772B1, “Pyrazolopyridine derivatives as selective cox-2 inhibitors” (SmithKline Beecham Corporation, priority 1998, dated 2007)
